Laboratory results taken from US8828696B2, “Use of Penicillin G Procaine as a selective antimicrobial agent in the production of alcohol by fermentation” (Lallemand Specialites, Inc, priority 2008, dated 2014).
“And” between values parts separate entries of the source, which are not always exact repeats. Equal entries are not always repeated.

Experiments:
Lactobacillus fermentum = assay: Comparative efficacy analysis Virginiamycin vs. Penicillin G Procaine, growth in MRS broth, 24 well plate; format: cell-based; settings: industry isolated Lactobacillus fermentum; ppm of the fermentation mixture
Text: The most commonly found microorganism in fuel ethanol producing plants is the Lactobacillus fermentum bacterium and is considered as an “industry normal” bacterium. This example compares the use of a Bactenix® line of products, Penicillin G Procaine-antibiotic versus Virginiamycin-antibiotic to control “industry normal” Lactobacillus fermentum bacterium. This trial uses an alcohol water mixture to assure total dissolving of antibiotics. This assures that the correct concentrations of antibiotics are going into the test wells and thereby preventing under dosing during the trial. All bacteria tested were industry specific isolates that were obtained from actual corn mash samples from fermentation alcohol production plants. The trial was set up as follows: • 1. Dissolve 0.1 g of each of the antibiotics in 1 ml water and then add 5 ml of ethanol, vortex and bring up to 10 ml with sterile water to from a suspension. • 2. Dilute the previous suspension 1:10 with sterile water. This gives a one mg/ml concentration. • 3. Filter the suspension by running through a 0.2 μm syringe filter. • 4. Add four μl broth in a centrifuge then add antibiotics to MRS (DeMan, Rogosa and Sharpe) broth at the concentrations required for the test. • 5. Take four μl of a fresh 24-hour culture of the target organisms and add to the corresponding empty wells in a pre-labeled 24 well tissue culture plate. • 6. Pipette one ml of the appropriate antibiotic media to each well of the plate. • 7. Incubate at 33° C. for 24 hours. • 8. Read plates for bacterial growth and re-incubate the plates at 33° C. • 9. After 48 hours read and report the final results.

contaminating bacteria = assay: Alcohol production plant trial, fermentor drop data (50 m/g/y dry grind, corn); format: cell-based
Method: This trial was conducted at a 50 million gallon per year (m/g/y) dry grind fuel alcohol production facility utilizing corn as a fermentation substrate. Batch yeast propagation and fermentation process were utilized. Antimicrobials were added to the fermentor during the fill cycle at approximately 30% fill.
No other changes were made to the process or chemical additions that would influence the fermentation kinetics monitored during 3 sets of fermentor batches listed below. The fermentation data was accumulated at the end (drop) of the fermentation process for each of the fermentors. Fermentation kinetics was measured for three batch cycles including:
Set 1—“Pre Penicillin G Procaine trial”-10 fermentor batches using a level of 0.5 ppm Virginiamycin. See results in Table 2.
Set 2—“Penicillin G Procaine trial”-10 fermentor batches using a level of 0.5 ppm of Penicillin G Procaine. See results in Table 3.
Set 3—“Post Penicillin G Procaine trial”-10 fermentor batches using a level of 0.5 ppm of Virginiamycin. See results in Table 4.

[1] = Penicillin G Procaine trial 0.5 ppm compared with Virginiamycin sets
[2] = Set 2 'Penicillin G Procaine trial', 0.5 ppm, 10 Batch average
[3] = Set 2 'Penicillin G Procaine trial', 0.5 ppm, drop data, single fermentor batch

`CC1(C)S[C@@H]2[C@H](NC(=O)Cc3ccccc3)C(=O)N2[C@H]1C(=O)O.CCN(CC)CCOC(=O)c1ccc(N)cc1` [Penicillin G Procaine] was tested, and the minimum inhibitory concentration (Lactobacillus fermentum) was 0.1 ppm, the “decrease of lactic acid production” value (contaminating bacteria; [1]) was “about a quarter percent” and the “increase of ethanol production” value (contaminating bacteria; [1]) was “about half a percent”. The “production increase of ethanol per fermentor” value (contaminating bacteria; [1]) was “about 2,500 gallons”, the Acetic % (contaminating bacteria; [2]) was 0.03% and the EtOH v/v % (contaminating bacteria; [2]) was 15.98 v/v %. The Glucose % (contaminating bacteria; [2]) was 0.28%, the Lactic % (contaminating bacteria; [2]) was 0.24% and the Acetic % (contaminating bacteria; [3]) was 0.03% and 0.02% and 0.05% and 0.04%. The Glucose % (contaminating bacteria; [3]) was 0.28% and 0.30% and 0.27% and 0.29% and the Lactic % (contaminating bacteria; [3]) was 0.28% and 0.19% and 0.21% and 0.26% and 0.25% and 0.23% and 0.24%.
